Measured values as given in US20080161583A1, “Epimerization methodologies for recovering stereoisomers in high yield and purity” (priority 2006, published 2008).
In brackets after ≈: the same amount, converted by molar mass.

Experiment: Solubility of an epimer in a solvent at the epimerization temperature (saturated slurry, filtered sample, HPLC assay)
Assay type: physicochemical
Conditions: saturated slurry in denatured ethanol (2B-3), organic solvent or mixture, thermodynamic from solid
Method: The solubility of a first epimer in a solvent may be determined as follows. Sampling syringes and saturated slurry samples are pre-heated (or pre-chilled) to the desired epimerization temperature, e.g., 65 C or 70 C in some embodiments. The syringe is preheated (or pre-chilled) to the same temperature in a vessel containing only the solvent and the syringe. The syringes may be 5 ml disposable syringes. The saturated slurry samples are prepared by combining the solvent under investigation and enough of the purified first epimer to ensure that at least some precipitate is present so that the sample slurry is saturated. A purified epimer refers to an epimer having a purity of at least 85% by weight with respect to the total weight of epimers, preferably at least 90% by weight, more preferably at least 95% by weight. When both the sample and the syringe are at the desired temperature, 1.5 ml samples are quickly drawn into the syringe. The sampling syringes desirably acquire samples through a suitable filter to avoid bringing solids into the syringe. A 25 mm, 0.45 micron PTFE disk filter is suitable. 1 ml of each sample is blown down and then diluted in 10 ml of a solvent in which the epimer is fully soluble such as methanol. HPLC analysis is then performed to determine the amount of epimer in the diluted sample. […]

## CC1(C)COC2(CC[C@H](CC(C(=O)O)c3ccc(S(C)(=O)=O)c(Cl)c3)C2)OC1 (some centres unmarked) [R,R epimer]
65 C
  solubility: 23.2 mg/mL (≈ 53.9 mM)
70 C
  solubility: 27.1 mg/mL (≈ 62.8 mM)
